Where two headings read alike, the source gives them in different places.
Assays:
[1] = tested on: HT29 cell line; assay: Cancer cell growth inhibition, SRB dye assay (single agents and 50:50 IC50 mixtures); format: cell-based, human; settings: single agent, Example 2
Experimental: (§1) Cancer cells were seeded the day before application of drug in triplicate or quadruplicate in 96-well plates, allowed to grow in the presence of drug for 6 days before cell growth relative to untreated control wells was determined with a dye assay.
(§2) Cells were seeded in triplicate or quadruplicate at 3-4,000 per microtitre well in 90 μl of RPMI culture medium/10% foetal calf serum/penicillin, streptomycin mix, treated with 10 μl of drug (prepared in a dilution plate at 10× concentration required), and allowed to grow until the controls were nearly confluent (6 days).
(§3) SRB: Plates were washed with PBS, fixed with methylated spirits, washed with tap water and stained with 50 μL/well of SRB solution (sulforhodamine, 0.4% in 1% acetic acid), followed by washing with tap water and 1% acetic acid, solubilisation in Tris and absorbance read at 564 nm in an ELISA reader.
(§4) Data was collected using ELISA plate reader software—SOFTmax PRO3.1.2, then imported into EXCEL. The mean and SD of replicates were calculated as a % of control, after subtraction of the blank value (wells with no cells). A graph was plotted of % control vs dose of agent and IC50 (half maximal inhibitory concentration) values determined.
(§5) Tumour cells were seeded in duplicate in 96-well plates at 2-5,000 per microtitre well containing RPMI culture medium/10% foetal calf serum. The cells were allowed to grow until the controls were nearly confluent after 5-6 days. Plates were then washed with PBS, fixed in ethanol and stained with 50 μL/well of SRB solution (sulforhodamine, 0.4% in 1% acetic acid), followed by washing with 1% acetic acid and solubilisation in Tris. The absorbance was read at 564 nm using an ELISA reader.
(§6) The IC50, or concentration required to inhibit cell growth by 50%, was determined from the percentage inhibition versus concentration data using the probit calculation methods of Finney (Finney D J (1971). Probit Analysis. 3rd Edition. Cambridge University Press).
(§7) The inhibitory data from each mixture was used to determine an IC50 of IC50 value, where the concentrations used were the Multiplying Factor values. In order to determine the actual IC50 contribution of each component in the two-component mixture, the IC50 of IC50 value was multiplied by the IC50 of the individual component. This can then be used to determine the reduction in IC50 contribution (ie, reduction in dose) of the chemotherapeutic agent due to the presence of the steroid saponin in the mixture. A simpler way of determining the reduction in dose is to use the following simple formula: […]

[2] = tested on: A549 cell line; assay: as above; format: cell-based, human
Experimental: as §1, §2, §3, §4, §5, §6, §7

[3] = tested on: DU145 cell line; assay: as above; format: cell-based, human; settings: single agent, Example 2
Experimental: as §1, §2, §3, §4, §5, §6, §7

[4] = tested on: PC3 cell line; assay: as above; format: cell-based, human; settings: single agent, Example 2
Experimental: as §1, §2, §3, §4, §5, §6, §7

[5] = tested on: LNCap cell line; assay: as above; format: cell-based, human; settings: for Vincristine Dose Reduction: 50:50 IC50 mixture vs vincristine alone, Example 3
Experimental: (§8) Cancer cells were seeded the day before application of drug in triplicate or quadruplicate in 96-well plates, allowed to grow in the presence of drug for 6 days before cell growth relative to untreated control wells was determined with a dye assay. Cells were seeded in triplicate or quadruplicate at 3-4,000 per microtitre well in 90 μl of RPMI culture medium/10% foetal calf serum/penicillin, streptomycin mix, treated with 10 μl of drug (prepared in a dilution plate at 10× concentration required), and allowed to grow until the controls were nearly confluent (6 days). SRB: Plates were washed with PBS, fixed with methylated spirits, washed with tap water and stained with 50 μL/well of SRB solution (sulforhodamine, 0.4% in 1% acetic acid), followed by washing with tap water and 1% acetic acid, solubilisation in Tris and absorbance read at 564 nm in an ELISA reader. Data was collected using ELISA plate reader software—SOFTmax PRO3.1.2, then imported into EXCEL. The mean and SD of replicates were calculated as a % of control, after subtraction of the blank value (wells with no cells). A graph was plotted of % control vs dose of agent and IC50 (half maximal inhibitory concentration) values determined. […] The cells were allowed to grow until the controls were nearly confluent after 5-6 days. Plates were then washed with PBS, fixed in ethanol and stained with 50 μL/well of SRB solution (sulforhodamine, 0.4% in 1% acetic acid), followed by washing with 1% acetic acid and solubilisation in Tris. The absorbance was read at 564 nm using an ELISA reader. […] Cambridge University Press). […] The inhibitory data from each mixture was used to determine an IC50 of IC50 value, where the concentrations used were the Multiplying Factor values. In order to determine the actual IC50 contribution of each component in the two-component mixture, the IC50 of IC50 value was multiplied by the IC50 of the individual component. This can then be used to determine the reduction in IC50 contribution (ie, reduction in dose) of the chemotherapeutic agent due to the presence of the steroid saponin in the mixture. A simpler way of determining the reduction in dose is to use the following simple formula: […]

[6] = tested on: MCF7 cell line; assay: as above; format: cell-based, human; settings: for Vincristine Dose Reduction: 50:50 IC50 mixture vs vincristine alone, Example 3
Experimental: as §8

[7] = tested on: K562 cell line; assay: as above; format: cell-based, human
Experimental: as §1, §2, §3, §4, §5, §6, §7
The cell seeding and ELISA plate methodology of Example 2 were used for determining inhibition of the K562 cell line.

[8] = tested on: PC3, DU145, A549 and HT29 cell lines; assay: Cancer cell growth inhibition, IC50 values used in assay for four cell lines (Example 5); format: cell-based, human; settings: value used to make up 50:50 IC50 mixtures
Experimental: as §5, §6
The cell seeding and ELISA plate methodology of Example 2 were used for determining inhibition of four cancer cell lines. IC50 values were determined for the steroid saponins dioscin, deltonin and prosapogenin A, and their mixtures with cisplatin, docetaxel, doxorubicin and vincristine, using PC3, DU145, A549 and HT29 cell lines.

[9] = tested on: HT29 human cells; assay: In vivo tumour volume, HT29 cells subcutaneously introduced into mice, 5-fluorouracil and deltonin; parameters: species or system Balb/c nude female mice; settings: 5-Fluorouracil 37.5 mg/kg 1 × weekly
Text: 5-Fluorouracil (5FU) is the principal chemotherapeutic drug used in treating colon cancer; it is most commonly co-administered with other chemotherapeutic agents. This study compared the co-administration of 5-fluoruracil and deltonin, with administration of mono-administration of both 5-fluorourcil and deltonin.
72 female Balb/c nude female mice were microchipped, weighed and randomised based on body weight into 8 groups with 9 mice per group. […]
HT29 human […] carcinoma cells were cultured in RPMI1640 cell culture medium, which was supplemented with 10% FBS and penicillin-streptomycin (50 IU/mL final concentration). The cells were harvested by trypsinisation, washed twice in HBSS and counted. The cells were then resuspended in HBSS and adjusted to a final volume containing 2×10^7 cells/mL. For inoculation, the needle was introduced through the skin into the subcutaneous space just below the right shoulder, where 100 μL of cells (2×10^6) were discharged.
When the tumour volumes had reached an average of greater than 200 mm^3, treatment was started (Day 0). Tumour volumes were measured 3-times weekly, and determined according to the formula: V(mm^3)=length×diameter^2×π/6
Treatment was continued for 17 days. The mean tumour volumes for each dosage regime are given in Table 24 and are presented graphically in FIG. 1: […]

[10] = single agent, Example 2, read-out: IC50
[11] = Example 3, value used to make up 50:50 IC50 mixtures, read-out: IC50 values used in assay
[12] = Homo sapiens, 144 h, single agent, Example 2, read-out: IC50
[13] = Homo sapiens, 144 h, Example 3, value used to make up 50:50 IC50 mixtures, read-out: IC50 values used in assay
[14] = Homo sapiens, 144 h, Example 4, value used to make up 50:50 IC50 mixtures, read-out: IC50 values used in assay
[15] = Example 4, value used to make up 50:50 IC50 mixtures, read-out: IC50 values used in assay

Row | Compound | IC50 ([1]; Homo sapiens, HT-29, 144 h) [nM] | IC50 [2, 12] [nM] | IC50 ([3]; Homo sapiens, DU-145, 144 h) [nM] | IC50 ([4]; Homo sapiens, PC-3, 144 h) [nM] | IC50 [5, 13] [nM] | IC50 [5, 12] [nM] | IC50 [6, 13] [nM] | IC50 [6, 12] [nM] | IC50 [7, 12] [nM] | IC50 ([8]; Homo sapiens) [nM] | also measured
1 | N.N.[Cl][Pt][Cl] [Cisplatin] | – | – | – | – | – | – | – | – | – | – | IC50 [1]: 930 nM; IC50 [2, 10]: 1200 nM; IC50 [3]: 540 nM; IC50 [4]: 1400 nM; IC50 [5, 11]: 800 nM; IC50 [5, 10]: 700 nM; IC50 [6, 11]: 800 nM; IC50 [6, 10]: 650 nM; IC50 [7, 10]: 820 nM; IC50 [8]: 800 nM
2 | C[C@@H]1CC[C@@]2(OC1)O[C@H]1C[C@H]3[C@@H]4CC=C5C[C@@H](O[C@@H]6O[C@H](CO)[C@@H](O[C@@H]7O[C@@H](C)[C@H](O)[C@@H](O)[C@H]7O)[C@H](O)[C@H]6O[C@@H]6O[C@@H](C)[C@H](O)[C@@H](O)[C@H]6O)CC[C@]5(C)[C@H]4CC[C@]3(C)[C@H]1[C@@H]2C [Dioscin, diosgenin Rha2, [Rha4], Glc] | – | – | – | – | 1000 | – | 1000 | – | – | 1000 | IC50 [2, 14]: 1000 nM; Vincristine Dose Reduction [5]: consistent reduction in dosage; Vincristine Dose Reduction [6]: consistent reduction in dosage; IC50 ([7]; Homo sapiens, 144 h, Example 6, value used to make up 50:50 IC50 mixtures, read-out: IC50 values used in assay): 1000 nM
3 | C[C@@H]1CC[C@@]2(OC1)O[C@H]1C[C@H]3[C@@H]4CC=C5C[C@@H](O[C@@H]6O[C@H](CO)[C@@H](O)[C@H](O)[C@H]6O[C@@H]6O[C@@H](C)[C@H](O)[C@@H](O)[C@H]6O)CC[C@]5(C)[C@H]4CC[C@]3(C)[C@H]1[C@@H]2C [Prosapogenin A, diosgenin Rha2, Glc] | – | – | – | – | – | – | – | – | – | – | IC50 [2, 15]: 2000 nM; Vincristine Dose Reduction [5]: effectively zero reduction; IC50 [5, 11]: 2000 nM; Vincristine Dose Reduction [6]: effectively zero reduction; IC50 [6, 11]: 2000 nM; IC50 [6, 15]: 2000 nM; IC50 ([7]; Example 6, value used to make up 50:50 IC50 mixtures, read-out: IC50 values used in assay): 2000 nM; IC50 [8]: 2000 nM
4 | O=c1[nH]cc(F)c(=O)[nH]1 [5-Fluorouracil (5FU), 5-Fluorouracil] | – | – | – | – | – | – | – | – | – | – | Mean tumour volume ([9]; Day 0): 236 mm^3; Mean tumour volume ([9]; Day 2): 280 mm^3; Mean tumour volume ([9]; Day 4): 307 mm^3; Mean tumour volume ([9]; Day 7): 330 mm^3; Mean tumour volume ([9]; Day 9): 432 mm^3; Mean tumour volume ([9]; Day 11): 511 mm^3; Mean tumour volume ([9]; Day 14): 681 mm^3; Mean tumour volume ([9]; Day 16): 676 mm^3; Mean tumour volume ([9]; Day 18): 824 mm^3

More lines, main results first:

Row | IC50 ([1]; Homo sapiens, HT-29, 144 h) [nM] | IC50 [2, 12] [nM] | IC50 ([3]; Homo sapiens, DU-145, 144 h) [nM] | IC50 ([4]; Homo sapiens, PC-3, 144 h) [nM] | IC50 [5, 13] [nM] | IC50 [5, 12] [nM] | IC50 [6, 13] [nM] | IC50 [6, 12] [nM] | IC50 [7, 12] [nM] | IC50 ([8]; Homo sapiens) [nM] | Compound | also measured
5 | 2.4 | 6 | 2.9 | 1.1 | 0.5 | 0.49 | 0.5 | 0.49 | 0.21 | 2.5 | CC[C@]1(O)C[C@H]2CN(CCc3c([nH]c4ccccc34)[C@@](C(=O)OC)(c3cc4c(cc3OC)N(C=O)[C@H]3[C@@](O)(C(=O)OC)[C@H](OC(C)=O)[C@]5(CC)C=CCN6CC[C@]43[C@@H]65)C2)C1 [Vincristine] | –
6 | 28 | 16 | 11 | 22 | 4 | 3.9 | 15 | 14 | 8.5 | 15 | COc1cccc2c1C(=O)c1c(O)c3c(c(O)c1C2=O)C[C@@](O)(C(=O)CO)C[C@@H]3O[C@H]1C[C@H](N)[C@H](O)[C@H](C)O1 [Doxorubicin] | –
7 | 0.51 | 0.27 | 0.15 | 0.09 | 0.03 | 0.026 | 0.03 | 0.039 | 0.42 | 0.2 | CC(=O)O[C@@]12CO[C@@H]1C[C@H](O)[C@@]1(C)C(=O)[C@H](O)C3=C(C)[C@@H](OC(=O)[C@H](O)[C@@H](NC(=O)OC(C)(C)C)c4ccccc4)C[C@@](O)([C@@H](OC(=O)c4ccccc4)[C@H]21)C3(C)C [Docetaxel] | –
8 | > 3.3 | 3.2 | 2.7 | 2.1 | – | 1.2 | – | 1.1 | > 3.3 | – | CC(=O)O[C@H]1C(=O)[C@@]2(C)[C@H]([C@H](OC(=O)c3ccccc3)[C@]3(O)C[C@H](OC(=O)[C@H](O)[C@@H](NC(=O)c4ccccc4)c4ccccc4)C(C)=C1C3(C)C)[C@]1(OC(C)=O)CO[C@@H]1C[C@@H]2O [Paclitaxel] | IC50 [2, 14]: 3 nM; IC50 [6, 14]: 1 nM
